Measured values: US20230321462A1, “Method for Improving Olfactory Sensitivity” (Kao Corporation, priority 2019, published 2023)

Key:
[1] = system: olfactory sensitivity to 3M3SH; assay: Sensory test: odor sensory intensity to 3M3SH with 3M3SH applied to armpit portions of clothes; assay type: in vivo, human; conditions: fifteen minutes after application of 3M3SH onto the armpit portions, two subjects, FIG. 3
Procedure: 3M3SH was used as an underarm odor-causing substance. A sensory evaluation sample was prepared by adding one cotton ball (Hakujuji Co., Ltd., No. 10) into a 13.5-mL vial bottle (Maruemu No. 5), and then adding 10 µL of a 3M3SH solution with each diluted concentration thereto. For the 3M3SH solution, mineral oil (Sigma-Aldrich) was used as a solvent, and the concentrations of the solution were set to be 0 µM, 1 µM, 3 µM, 10 µM, 30 µM, 100 µM, and 300 µM.
The sensory test was carried out with two subjects. The subjects wore a commercially available white cloth (material: 65% polyester and 35% cotton). The subjects first smelled the above-described samples in the order from a low concentration sample to a high concentration sample, and odor sensory intensity which the subjects felt was then evaluated. The evaluation was carried out in 9 stages from “0: Not felt” to “4: Unbearably strongly felt,” at intervals of 0.5. Thereafter, the 3M3SH ethanol solution (3 µg/mL) was added in an amount of 10 µL each onto both of the armpit portions of each subject’ clothes (white clothes). Fifteen minutes after addition of this solution, the above-described sensory evaluation was carried out again. […]

OR10G4 = biological target: T1, OR10G4 (Homo sapiens, UniProt Q8NGN3); assay: Luciferase reporter gene assay, response of OR10G4 to odor substances; assay type: cell-based; conditions: OR10G4-expressing HEK293 cells, luciferase fold increase, FIG. 1
T1 construct: Flag-Rho tag (N); expressed in transfected cells; host or cells: HEK293
T1 sequence (Q8NGN3 1-311): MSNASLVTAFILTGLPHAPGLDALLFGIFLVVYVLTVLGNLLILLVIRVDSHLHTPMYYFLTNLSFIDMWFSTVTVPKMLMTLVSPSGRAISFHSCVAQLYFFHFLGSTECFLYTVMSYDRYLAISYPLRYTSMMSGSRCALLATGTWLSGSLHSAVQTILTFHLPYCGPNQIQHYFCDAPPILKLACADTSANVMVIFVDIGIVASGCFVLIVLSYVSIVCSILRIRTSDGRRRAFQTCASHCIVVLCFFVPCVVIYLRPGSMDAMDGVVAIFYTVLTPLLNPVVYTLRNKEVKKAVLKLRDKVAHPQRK
Text: Genes encoding the human olfactory receptors OR10G4, OR4S2, OR5P3, OR2W1, and OR1A1 (which are as set forth in SEQ ID NOs: 1, 2, 3, 4, and 5, respectively) were cloned. Each gene was cloned by PCR using human genomic DNA female (G1521: Promega) as a template, based on the sequence information registered in GenBank. Each gene amplified by PCR was incorporated into a pENTR vector (Invitrogen) in accordance with the manual, and by utilizing the NotI/AscI site present on the pENTR vector, it was recombined to the NotI/AscI site produced downstream of a Flag-Rho tag sequence on a pME18S vector. […]
(§1) An olfactory receptor expressed in HEK293 cells conjugated with Gαs existing in the cells to activate adenylate cyclase, so as to increase the amount of cAMP in the cells. For the receptor response measurement in the present study, a luciferase reporter gene assay was applied, and an increase in the intracellular amount of cAMP was monitored as a luminescence value derived from a firefly luciferase gene (fluc2P-CRE-hygro). […]
The medium was removed from the culture produced in the above 3), and an odor substance solution was then added thereto. […] The activity of luciferase was measured using Dual-Glo™ luciferase assay system (Promega) in accordance with the operating manual of the product. […]

OR4S2 = biological target: T2, OR4S2 (Homo sapiens, UniProt Q8NH73); assay: Luciferase reporter gene assay, response of OR4S2 to odor substances; assay type: cell-based; conditions: OR4S2-expressing HEK293 cells, luciferase fold increase, FIG. 4, 5, 9
T2 construct: Flag-Rho tag (N); expressed in transfected cells; host or cells: HEK293
T2 sequence (Q8NH73 1-311): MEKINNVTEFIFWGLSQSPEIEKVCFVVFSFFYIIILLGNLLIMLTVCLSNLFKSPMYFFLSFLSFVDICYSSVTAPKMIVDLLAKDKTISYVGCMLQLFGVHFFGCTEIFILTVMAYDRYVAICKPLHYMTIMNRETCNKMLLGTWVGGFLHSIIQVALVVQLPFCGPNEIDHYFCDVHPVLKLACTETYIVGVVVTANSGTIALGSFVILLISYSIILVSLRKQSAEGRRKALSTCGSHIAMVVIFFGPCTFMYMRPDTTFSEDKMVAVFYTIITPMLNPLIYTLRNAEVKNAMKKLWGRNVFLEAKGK
Text: Genes encoding the human olfactory receptors OR10G4, OR4S2, OR5P3, OR2W1, and OR1A1 (which are as set forth in SEQ ID NOs: 1, 2, 3, 4, and 5, respectively) were cloned. Each gene was cloned by PCR using human genomic DNA female (G1521: Promega) as a template, based on the sequence information registered in GenBank. Each gene amplified by PCR was incorporated into a pENTR vector (Invitrogen) in accordance with the manual, and by utilizing the NotI/AscI site present on the pENTR vector, it was recombined to the NotI/AscI site produced downstream of a Flag-Rho tag sequence on a pME18S vector.
HEK293 cells in which any one of the above-described human olfactory receptors was allowed to express, were produced. A reaction solution having the composition shown in Table 2 was prepared, and was then left to stand in a clean bench for 15 minutes. The resultant was added into each well of a 96-well plate (BD). […]
as §1
The medium was removed from the culture produced in the above 3), and an odor substance solution was then added thereto. […] The activity of luciferase was measured using Dual-Glo™ luciferase assay system (Promega) in accordance with the operating manual of the product. The value fLuc/hRluc was calculated by dividing the value of luminescence derived from firefly luciferase by the value of luminescence derived from Renilla luciferase. A fold increase was calculated by dividing the value fLuc/hRluc induced by cells stimulated with an odor substance, by the value fLuc/hRluc induced by cells not stimulated with an odor substance, and the obtained value was used as an indicator of response intensity. […]

olfactory sensitivity = assay: Sensory test: detection threshold concentration of odor substances before and after oral care; assay type: in vivo, human; conditions: for olfactory sensitivity (detection threshold concentration): 1 hour after oral care vs before oral care
Procedure: Olfactory sensitivity before and after oral care was evaluated according to a sensory test. The experimental scheme is shown in FIG. 6A, and is also described in detail below. The sensory test was carried out with 14 subjects. On the test day, the subjects were prohibited to eat and drink anything after getting up, and were also prohibited to do oral care including brushing of teeth. The test was started between 8:00 am to 9:30 am. First, exhaled breath was collected from the subjects. Subsequently, the detection threshold concentration of each odor substance was measured according to the sensory test. Thereafter, the subjects ate designated breakfast, and then performed oral care (the brushing of teeth using commercially available toothbrush and dentifrice for 5 minutes, and then, the washing of the mouth using commercially available mouth wash for 30 seconds). At individual time points of 10 minutes and 1 hour after the oral care, exhaled breath was collected from the subjects and the detection threshold concentration of each odor substance was measured.
1 mL of an odor substance solution placed in a vial bottle (Maruemu, No. 2) was used as an odor sample. As such odor substance solutions, a 20-step 2-fold dilution series was prepared regarding each of muscone, indole, and furfuryl mercaptan (highest concentrations: 1000 ppm, 1 mM, and 10 ppb, respectively). Mineral oil (Sigma-Aldrich) was used as a solvent in all cases. As a blank, a vial containing 1 mL of mineral oil was used.
A single test was carried out on two types of odor substance among muscone, indole, and furfuryl mercaptan. […] The test participants smelled the odors contained in the vials and tried to choose the vial containing an odor solution. The test was started with an odor sample having the third low concentration. When the subject’s selection was incorrect or the subject could not choose the vial even once, the same trial was carried out using an odor sample having one step higher concentration. When the subject’ selection was correct two times in a row, the same trial was carried out using an odor sample having one step lower concentration. When the subject’ selection was correct two times in a row using an odor sample with a new concentration, the subject was tested using an odor sample having further one step lower concentration. When the subject could not choose the correct vial even once, the subject was tested using an odor sample having one step higher concentration. Switching from a high concentration to a low concentration, and from a low concentration to a high concentration, was recorded 7 times in total, and the mean value of the concentrations measured 4 times in the second half was defined as a detection threshold concentration. The detection threshold concentrations of each odor substance before and after oral care were compared with each other according to the Wilcoxon signed-rank test, and the p value was calculated. The statistical analysis was carried out using R Software (Ver.3.6.0).

OR5AN1 = biological target: T3, OR5AN1 (Homo sapiens, UniProt Q8NGI8); conditions: Patent Literature 1; cited from earlier work
T3 sequence (Q8NGI8 1-311): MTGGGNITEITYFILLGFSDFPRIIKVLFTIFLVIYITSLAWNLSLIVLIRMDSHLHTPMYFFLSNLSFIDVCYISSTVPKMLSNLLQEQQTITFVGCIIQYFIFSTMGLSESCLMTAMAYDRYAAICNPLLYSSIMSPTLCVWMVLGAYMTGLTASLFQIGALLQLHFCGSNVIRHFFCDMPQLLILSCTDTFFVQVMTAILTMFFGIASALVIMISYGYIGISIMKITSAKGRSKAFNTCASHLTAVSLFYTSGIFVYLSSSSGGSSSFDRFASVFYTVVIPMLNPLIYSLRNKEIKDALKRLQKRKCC

Row | Structure (SMILES) | response of OR10G4 to odor substances (OR10G4) | response of OR4S2 to odor substances (OR4S2) | olfactory sensitivity (detection threshold concentration) (olfactory sensitivity; FIG. 7A) | further results
1 | CCCC(C)(S)CCO (stereo not drawn) [3M3SH, 3-Methyl-3-sulfanylhexan-1-ol] |  |  |  | odor intensity of 3M3SH felt from the sample [1]: reduced
2 | CCOc1cc(C=O)ccc1O [ethyl vanillin, Ethyl vanillin] | activate OR10G4 |  |  | 
3 | SCc1ccco1 [furfuryl mercaptan, Furfuryl mercaptan] |  | is activated by | statistically significantly improved | 
4 | COc1ccccc1O [guaiacol, Guaiacol] | activate OR10G4 |  |  | 
5 | c1ccc2[nH]ccc2c1 [indole, Indole] |  | activate OR4S2 | statistically significantly improved | detection threshold concentration relative to before oral care (olfactory sensitivity; 10 minutes after the oral care, FIG. 7B): 1/16; detection threshold concentration relative to before oral care (olfactory sensitivity; 1 hour after the oral care, on average, FIG. 7A): ⅛
6 | C[C@@H]1CCCCCCCCCCCCC(=O)C1 [muscone, Muscone] |  | is not activated by | no statistically significant difference | recognition by OR5AN1 (OR5AN1): recognized, mainly mediated by OR5AN1
